Assay results reported in patent US20090054403A1, “Treatment of Post-Traumatic Stress Disorder” (priority 2007, published 2009).

What was measured:
[1] = biological target: T1, neutral endopeptidase (Homo sapiens, UniProt P08473); test: Selected enzyme assay; format: biochemical
T1 construct: PanLabs Inc (assay provider)
Experimental: (§1) The activity of nepicastat at twelve selected enzymes and receptors was determined using established assays. Details of individual receptor radioligand binding assays can be found in Wong et al (1993). Binding data were analyzed by iterative curve-fitting to a four parameter logistic equation. Ki values were calculated from IC50 values using the Cheng-Prusoff equation. Enzyme inhibitory activity was expressed as IC50 (concentration required to produce 50% inhibition of enzyme activity). Male SHRs (15-16 weeks old, Charles River, Wilmington, Mass., USA) were used in the study. On the day of the study, animals were weighed and randomly assigned to be dosed with either vehicle (control) or the appropriate dose of nepicastat (3, 10, 30 or 100 mg.kg^−1, po) or (R)-5-Aminomethyl-1-(5,7-difluoro-1,2,3,4-tetrahydronaphth-2-yl)-2,3-dihydro-2-thioxo-1H-imidazole hydrochloride (30 mg.kg^−1, po) three consecutive times, twelve hours apart. At six hours after the third dose, the rats were anaesthetized with halothane, decapitated and tissues (cerebral cortex, mesenteric artery and left ventricle) were rapidly harvested, weighed, placed in iced perchloric acid (0.4 M), frozen in liquid nitrogen and stored at −70° C. until subsequent analysis. To quantify noradrenaline and dopamine concentrations, tissues were homogenized by brief sonication and centrifuged at 13,000 rpm for 30 minutes at 4° C. The supernatant, spiked with 3,4-dihydroxybenzylamine (internal standard), was assayed for noradrenaline and dopamine by HPLC using electrochemical detection.
(§2) In vitro assay of selected enzymes and neurotransmitter receptors. The activity of 2a at eleven different enzymes was determined using established assays (PanLabs Inc, Foster City, Calif.). The affinity of 2a for thirteen selected receptors was determined by radioligand binding assays using standard filtration techniques and membrane preparations. Binding data were analyzed by iterative curve fitting to a four parameter logistic equation. Ki values were calculated using the Cheng-Prusoff equation.

[2] = biological target: T2, HMG-CoA reductase (Homo sapiens, UniProt P04035); test: Selected enzyme assay; format: biochemical
T2 construct: PanLabs Inc (assay provider)
T2 sequence (P04035 whole entry, species assumed): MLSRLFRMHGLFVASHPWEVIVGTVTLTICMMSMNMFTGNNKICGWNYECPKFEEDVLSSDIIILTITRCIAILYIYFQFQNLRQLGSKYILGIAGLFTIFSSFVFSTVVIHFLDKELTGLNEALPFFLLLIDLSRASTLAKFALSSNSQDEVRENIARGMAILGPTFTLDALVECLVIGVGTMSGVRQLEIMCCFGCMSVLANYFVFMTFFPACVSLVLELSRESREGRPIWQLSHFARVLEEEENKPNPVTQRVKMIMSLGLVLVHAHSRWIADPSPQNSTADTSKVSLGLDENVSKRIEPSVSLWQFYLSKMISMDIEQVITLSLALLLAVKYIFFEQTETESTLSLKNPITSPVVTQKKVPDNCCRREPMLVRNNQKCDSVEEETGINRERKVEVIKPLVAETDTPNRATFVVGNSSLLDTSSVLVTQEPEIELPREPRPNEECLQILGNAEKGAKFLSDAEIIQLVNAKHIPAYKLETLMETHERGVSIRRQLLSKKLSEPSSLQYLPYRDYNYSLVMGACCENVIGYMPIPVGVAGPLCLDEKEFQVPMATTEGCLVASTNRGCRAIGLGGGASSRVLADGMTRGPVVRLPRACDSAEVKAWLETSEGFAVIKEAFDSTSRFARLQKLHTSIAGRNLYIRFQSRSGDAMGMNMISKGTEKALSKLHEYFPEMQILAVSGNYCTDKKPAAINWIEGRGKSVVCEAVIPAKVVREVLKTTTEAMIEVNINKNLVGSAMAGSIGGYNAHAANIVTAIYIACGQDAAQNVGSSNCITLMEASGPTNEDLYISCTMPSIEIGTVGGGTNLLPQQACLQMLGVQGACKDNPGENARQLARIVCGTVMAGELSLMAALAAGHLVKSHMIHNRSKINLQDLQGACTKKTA
Experimental: as §1, §2

[3] = biological target: nitric oxide synthase; test: Selected enzyme assay; format: biochemical
Experimental: as §1, §2

[4] = biological target: T3, cyclooxygenase-I (Homo sapiens, UniProt P23219); test: Selected enzyme assay; format: biochemical
T3 construct: PanLabs Inc (assay provider)
T3 sequence (P23219 24-599): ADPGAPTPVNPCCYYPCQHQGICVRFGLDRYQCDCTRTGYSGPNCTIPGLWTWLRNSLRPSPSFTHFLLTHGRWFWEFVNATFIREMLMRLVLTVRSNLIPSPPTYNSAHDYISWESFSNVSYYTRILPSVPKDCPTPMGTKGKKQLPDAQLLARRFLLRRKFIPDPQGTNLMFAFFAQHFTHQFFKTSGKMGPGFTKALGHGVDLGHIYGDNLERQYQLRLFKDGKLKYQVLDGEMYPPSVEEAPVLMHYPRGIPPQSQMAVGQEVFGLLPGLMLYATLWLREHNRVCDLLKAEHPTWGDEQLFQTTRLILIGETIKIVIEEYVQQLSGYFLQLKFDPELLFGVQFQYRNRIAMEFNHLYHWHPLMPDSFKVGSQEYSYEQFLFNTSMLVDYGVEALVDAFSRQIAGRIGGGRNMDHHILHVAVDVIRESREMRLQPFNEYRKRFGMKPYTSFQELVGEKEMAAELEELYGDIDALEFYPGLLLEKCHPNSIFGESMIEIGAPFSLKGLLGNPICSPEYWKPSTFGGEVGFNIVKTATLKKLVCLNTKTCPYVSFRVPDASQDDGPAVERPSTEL
Experimental: as §1, §2

[5] = biological target: acetyl CoA synthetase; test: Selected enzyme assay; format: biochemical
Experimental: as §1, §2

[6] = biological target: protein kinase C; test: Selected enzyme assay; format: biochemical; settings: b560 prints protein kinase (non-selective)
Experimental: as §1, §2

[7] = biological target: T4, tyrosine hydroxylase (Homo sapiens, UniProt P07101); test: Selected enzyme assay; format: biochemical
T4 construct: PanLabs Inc (assay provider)
T4 sequence (P07101 whole entry): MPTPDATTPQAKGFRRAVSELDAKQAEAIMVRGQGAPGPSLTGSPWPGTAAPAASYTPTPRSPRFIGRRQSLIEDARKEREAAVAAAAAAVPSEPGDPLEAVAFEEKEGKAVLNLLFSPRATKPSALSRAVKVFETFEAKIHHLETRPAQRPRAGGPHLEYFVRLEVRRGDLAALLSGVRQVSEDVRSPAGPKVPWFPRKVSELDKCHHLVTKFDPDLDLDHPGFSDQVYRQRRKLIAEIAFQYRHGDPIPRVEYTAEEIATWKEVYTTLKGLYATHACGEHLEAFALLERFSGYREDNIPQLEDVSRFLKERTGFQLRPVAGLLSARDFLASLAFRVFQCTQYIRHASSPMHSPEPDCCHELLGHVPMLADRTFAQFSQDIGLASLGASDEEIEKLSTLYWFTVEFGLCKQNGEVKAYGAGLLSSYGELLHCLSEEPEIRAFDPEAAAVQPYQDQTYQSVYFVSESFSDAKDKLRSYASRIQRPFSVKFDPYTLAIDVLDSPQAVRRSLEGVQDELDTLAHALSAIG
Experimental: as §1, §2

[8] = biological target: Ca2+/calmodulin protein kinase II; test: Selected enzyme assay; format: biochemical
Experimental: as §1, §2

[9] = biological target: acyl CoA-cholesterol acyl transferase; test: Selected enzyme assay; format: biochemical
Experimental: as §1, §2

[10] = Plasma levels of nepicastat and N-acetyl metabolite in dogs, 2 mg/kg b.i.d.; format: in vivo, beagle dogs; settings: 2 mg/kg bid, sampled 6 h after AM dose
Experimental: Male Beagle dogs (Marshall farms, North Rose, N.Y.) weighing between 9-16 kg were used in the study. The animals were allowed water ad libitum and given food once daily at ˜10.00 AM. Animals were randomly assigned to one of the following treatment groups (n=8/group): placebo (empty capsule), or nepicastat at 2 mg/kg b.i.d (4 mg/kg/day). Each animal received 2 doses daily, morning and afternoon (8-10 hours apart). Daily blood samples (10 ml) were drawn 6 h after the AM dose for measurement of plasma levels of nepicastat and catecholamines. The blood was collected in tubes containing heparin and glutathione and centrifuged at −4° C. within 1 h of collection. The plasma was separated and divided into two samples, one for the measurement of plasma catecholamines and the other for analysis of nepicastat.
Plasma NE, DA and EPI were anaylysed by HPLC using electrochemical detection. Plasma concentration of nepicastat was determined by HPLC using electrochemical detection.

[11] = biological target: alpha1 receptors; test: Radioligand filtration binding (Example 19)
Experimental: (§3) The affinity of nepicastat was determined in the bindings assays outlined in FIG. 97. Standard radioligand filtration binding methods were used. Competition binding data were analyzed by iterative curve fitting to a four parameter logistic equation. Hill coefficients and IC50 were obtained directly. pKi (−log of Ki) of competing ligands were calculated from IC50 values using the Cheng-Prusoff equation.

[12] = biological target: all other receptors examined; test: Radioligand filtration binding (Example 19)
Experimental: as §3

T1 sequence (P08473 whole entry, species assumed): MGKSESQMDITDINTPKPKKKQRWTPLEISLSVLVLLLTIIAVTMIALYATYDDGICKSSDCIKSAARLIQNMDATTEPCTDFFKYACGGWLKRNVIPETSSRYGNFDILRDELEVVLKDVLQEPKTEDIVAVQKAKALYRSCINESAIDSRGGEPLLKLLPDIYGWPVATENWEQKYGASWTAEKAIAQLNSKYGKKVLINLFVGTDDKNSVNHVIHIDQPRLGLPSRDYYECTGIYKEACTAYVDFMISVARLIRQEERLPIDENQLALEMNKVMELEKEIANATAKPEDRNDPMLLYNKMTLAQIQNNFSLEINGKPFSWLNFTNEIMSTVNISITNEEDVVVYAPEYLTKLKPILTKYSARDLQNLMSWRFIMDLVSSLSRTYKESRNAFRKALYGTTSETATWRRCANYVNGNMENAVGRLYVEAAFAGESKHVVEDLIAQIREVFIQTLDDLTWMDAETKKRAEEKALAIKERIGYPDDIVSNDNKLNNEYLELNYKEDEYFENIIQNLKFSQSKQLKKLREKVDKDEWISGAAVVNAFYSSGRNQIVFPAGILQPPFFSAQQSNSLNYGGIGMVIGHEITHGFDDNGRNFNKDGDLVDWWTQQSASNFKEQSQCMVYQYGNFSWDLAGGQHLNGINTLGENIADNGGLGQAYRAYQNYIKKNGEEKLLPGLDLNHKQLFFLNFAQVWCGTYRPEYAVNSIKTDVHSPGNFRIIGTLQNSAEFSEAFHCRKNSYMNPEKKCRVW

For `Cl.NCc1c[nH]c(=S)n1[C@H]1CCc2c(F)cc(F)cc2C1` [nepicastat, (S)-5-Aminomethyl-1-(5,7-difluoro-1,2,3,4-tetrahydronaphth-2-yl)-2,3-dihydro-2-thioxo-1H-imidazole hydrochloride], the IC50 [1] was > 10 µM, the IC50 [2] was > 10 µM and the IC50 [3] was > 10 µM. For the same molecule, the IC50 [4] was > 10 µM, the IC50 [5] was > 10 µM and the IC50 [6] was > 10 µM. For the same molecule, the IC50 [7] was > 10 µM, the IC50 [8] was > 10 µM and the IC50 [9] was > 10 µM. For the same molecule, the “time of peak plasma levels of the drug” value [10] was 2 days post-dose, the pKi [11] was 6.9-6.7 and the pKi [12] was < 6.2.
